Data from patent publication US12612424B2, “HPK1 inhibitors and uses thereof” (Regor Pharmaceuticals, Inc., priority 2019, dated 2026).
Where two headings read alike, the source gives them in different places.

How the values were obtained:
HPK1 = HPK1 (Homo sapiens, UniProt Q92918); assay: HPK1 biochemical assay (ADP-GLO Kinase Assay)
Source text: IC50 values of any compounds can be determined accordingly over a range of inhibitor concentrations. In addition, the inhibitory effect of the compounds can also be assess using a biological assay, to determine the effect of the compounds on cytokine secretion by T cells following TCR and CD28 stimulation.
Biology Example 1 HPK1 Biochemical Assay
This example used the ADP-GLO™ Kinase Assay to measure the effect of potential HPK1 inhibitor compounds on HPK1 kinase activity.
The ADP-GLO™ Kinase Assay (Promega Corp., Madison, WI) measures ADP formed from a kinase reaction. According to the manufacture, the ADP formed in a kinase assay is first converted into ATP, which is then used to generate light in a luciferase reaction. The luminescence generated correlates with kinase activity. An exemplary experimental setting is described below, though minor adjustments can be made in individual assays.
Serial 3-fold dilution of compounds from 10 μM (top concentration) to 0.508 nM (lowest concentration). Positive control is 10 μM Reference+enzyme+substrate. Negative control is 1% DMSO+enzyme+substrate.
• 1. Buffer Preparation • 40 mM Tris pH7.5; 20 mM MgCl2, 0.1 mg/ml BSA, 50 μM DTT Buffer Stock
Add 20 mL 1M Tris and 10 mL 1M MgCl2 to 470 mL ddH2O to get buffer stock, and stock at RT. • 2. Preparing Fresh 1* Assay Buffer
• 3. Compounds Preparation • 1) The compounds were diluted to 1 mM, by mixing 10 μL of 10 mM respective compound stocks with 90 μL of DMSO. • 2) The compounds were then diluted 3-fold for 10 doses (5 μL to 10 μL dilution) by BRAVO. The top compound conc. was 1 mM (100×), DMSO Conc. was 100%. • 3) Transfer 100 nL of each diluted compound sample to 384-well plate (Corning-4512) by ECHO. • 4) Centrifuge the plate at 1,500 rpm for 1 minute. • 4. Preparation of 2×ATP-MBP Mixture: • 20 μM ATP, 0.2 μg/μL MBP in Kinase Buffer (final concentration: 10 μM ATP, 0.1 MBP)
• 5. Preparation of 2×HPK1 working solution with assay buffer. • HPK1 final concentration was 0.6 ng/μL. […] Incubate at 25° C. for 40 min. • 11. Record luminescence signal on an Envision plate reader (384-CTG). 5. Data Analysis
The percent (%) inhibition at each concentration of compound is calculated based on and relative to the signal in the High and Low control wells contained within each assay plate. […] The concentrations and % inhibition values for tested compounds were plotted and the concentration of compound required for 50% inhibition (IC50) was determined with a Three-parameter logistic dose response equation. The endpoint value (IC50) for the reference peptide/compound was evaluated in each experiment as a quality control measure. If the endpoint value was within 3-fold of the expected value, then the experiment was deemed acceptable.

JAK3 = biological target: T1, JAK3 (Homo sapiens, UniProt P52333); assay: JAK3 biochemical assay (ADP-GLO Kinase Assay); conditions: for JAKs/HPK1 IC50 Ratio, B*: first testing facility
T1 construct: purchased Thermo fisher PV3855
T1 sequence (P52333 781-1124 limits assumed): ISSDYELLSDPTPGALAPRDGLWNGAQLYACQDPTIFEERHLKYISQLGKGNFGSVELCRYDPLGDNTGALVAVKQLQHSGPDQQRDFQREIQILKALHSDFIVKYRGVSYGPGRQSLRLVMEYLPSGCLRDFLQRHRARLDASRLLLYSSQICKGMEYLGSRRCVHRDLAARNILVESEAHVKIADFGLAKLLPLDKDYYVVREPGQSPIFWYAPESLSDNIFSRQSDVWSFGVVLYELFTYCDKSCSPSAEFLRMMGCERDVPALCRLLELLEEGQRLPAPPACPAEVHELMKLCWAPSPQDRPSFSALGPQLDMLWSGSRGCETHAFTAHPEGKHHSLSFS
Procedure: Biology Example 4 JAK3 Biochemical Assay
This example used the ADP-GLO™ Kinase Assay to measure the effect of potential HPK1 inhibitor compounds on JAK3 kinase activity. An exemplary experimental setting is described below, though minor adjustments can be made in individual assays.
3. Procedures • 1. Prepare JAK3 kinase buffer • Freshly adding DTT and BSA into Buffer (Final Conc.: 40 mM Tris pH7.5; 20 mM MgCl2, 0.1 mg/ml BSA, 50 μM DTT).
• 2. Compounds Preparation • For tested compounds: compounds were diluted to 1 mM, by mixing 5 μL of 10 mM compound stocks to 45 μL DMSO. The compounds solutions were then serially diluted 3-fold for 10 doses. The top compound concentration was 1 mM (100×), DMSO concentration was 100%. • 50 nL of each of 10 doses of diluted compound were added to 384-well assay plate (Corning #4512) by ECHO. • For positive control, 50 nL of 1 mM reference compound were added to 384-well assay plate (Corning #4512) by ECHO. • For negative control: 50 nL of DMSO was transferred into 384-well assay plate as a negative control. • The assay plate was centrifuged at 1,500 rpm for 1 minute. • 3. Compounds were Transferred by ECHO Following the Layout Below: • Reference and test compounds 1-15: serial 3-fold dilution from 10 μM to 0.508 nM (10 doses); negative control is 0.78 ng JAK3, 4 μM ATP & 0.2 μg/μL poly, 1% DMSO; positive control is the top dose of the reference compound, 0.78 ng JAK3, 0.2 μg/μL Poly(E4Y1), 4 μMATP, 1% DMSO. • 4. Add 2.5 μL/well of 2×JAK3 working solution using pipette (Thermo, 30 μL multi-channel), Centrifuge at 1,500 rpm for 1 minute. • 5. Add 2.5 μL/well of 2×ATP-Poly(E4Y1) working mixture using pipette (Thermo, 30 μL multi-channel), Centrifuge at 1,500 rpm for 1 minute. • 6. Incubate the assay plate at 25° C. for 60 min. • 7. Add 5 μL/well ADP-GLO™ Reagent by BRAVO to stop the kinase reaction and deplete the unconsumed ATP after 1 hour. Centrifuge at 1,500 rpm for 1 minute. Incubate at 25° C. for 40 min. • 8. Add 10 uL of Kinase Detection Reagent by BRAVO to convert ADP to ATP. Centrifuge at 1,500 rpm for 1 minute. Incubate at 25° C. for 40 min. • 9. Record luminescence signal on an Envision plate reader (384-USL). • 10. Process data using XL-fit. Inhibition %=[1-(test well−Negative control)/(positive control−Negative control)]*100%. 5. Data Analysis
The percent (%) inhibition at each concentration of compound is calculated based on and relative to the signal in the Negative and Positive control wells contained within each assay plate. The Negative control wells served as 0% inhibition, and the Positive control wells served as 100% inhibition. The concentrations and % inhibition values for tested compounds are plotted and the concentration of compound required for 50% inhibition (IC50) is determined with a Three-parameter logistic dose response equation. The endpoint value (IC50) for the reference peptide/compound is evaluated in each experiment as a quality control measure. If the endpoint value was within 3-fold of the expected value then the experiment was deemed acceptable.

[1] = B*: testing performed in a first testing facility, read-out: HPK1 IC50 (nM) Relative, B*
[2] = B*: testing performed in a first testing facility, read-out: JAK3 IC50 (nM) Relative, B*
[3] = ratio of JAK3 IC50 to HPK1 IC50

Chain of HPK1 (Q92918 whole entry): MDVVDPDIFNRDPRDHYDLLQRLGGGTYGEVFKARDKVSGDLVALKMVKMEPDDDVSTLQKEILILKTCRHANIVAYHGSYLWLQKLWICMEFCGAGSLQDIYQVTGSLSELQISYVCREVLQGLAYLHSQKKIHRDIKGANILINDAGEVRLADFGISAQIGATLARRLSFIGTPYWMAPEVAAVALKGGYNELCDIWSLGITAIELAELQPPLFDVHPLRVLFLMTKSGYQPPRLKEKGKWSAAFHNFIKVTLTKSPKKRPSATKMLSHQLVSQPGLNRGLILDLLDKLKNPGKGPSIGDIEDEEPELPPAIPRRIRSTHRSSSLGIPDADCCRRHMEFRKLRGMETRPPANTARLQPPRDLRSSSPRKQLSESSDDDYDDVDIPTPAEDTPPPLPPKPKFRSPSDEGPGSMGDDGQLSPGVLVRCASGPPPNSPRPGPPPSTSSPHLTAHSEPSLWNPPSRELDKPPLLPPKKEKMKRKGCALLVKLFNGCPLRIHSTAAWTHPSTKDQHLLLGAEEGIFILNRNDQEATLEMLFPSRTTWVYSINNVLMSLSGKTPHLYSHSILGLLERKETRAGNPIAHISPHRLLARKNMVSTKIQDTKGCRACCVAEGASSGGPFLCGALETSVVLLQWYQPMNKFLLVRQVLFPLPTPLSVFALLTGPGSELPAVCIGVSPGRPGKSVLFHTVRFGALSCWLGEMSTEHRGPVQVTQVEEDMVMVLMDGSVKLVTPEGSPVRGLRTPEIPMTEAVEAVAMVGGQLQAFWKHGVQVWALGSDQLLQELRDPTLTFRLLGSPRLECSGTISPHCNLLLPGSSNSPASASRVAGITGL

SMILES	IC50 (HPK1; [1]) [nM]	IC50 (JAK3; [2]) [nM]	JAKs/HPK1 IC50 Ratio, B* (JAK3; [3])	IC50 (HPK1; N*: testing performed in a second testing facility, read-out: HPK1 IC50 (nM) Relative, N*) [nM]	IC50 (JAK3; N*: testing performed in a second testing facility, read-out: JAK3 IC50 (nM) Relative, N*) [nM]	JAKs/HPK1 IC50 Ratio, N* (JAK3; ratio of JAK3 IC50 to HPK1 IC50, second testing facility)
COc1cc2c(cc1Nc1ncc3c(n1)N(c1ccccc1P(C)(C)=O)CCO3)CN(C)CC2 [Example 47, (2-(2-((6-Methoxy-2-methyl-1,2,3,4-tetrahydroisoquinolin-7-yl)amino)-6H-pyrimido[5,4-b][1,4]oxazin-8(7H)-yl)phenyl)dimethylphosphine oxide]	100 to 500	> 1000	>22			
COc1cc2c(cc1Nc1ncc3c(n1)n(-c1ccccc1)c(=O)n3C)CN(C)CC2 [Example 166, 2-((6-Methoxy-2-methyl-1,2,3,4-tetrahydroisoquinolin-7-yl)amino)-7-methyl-9-phenyl-7,9-dihydro-8H-purin-8-one]	100 to 500	> 1000				
CCc1c[nH]c2ncc(-c3ccc(NC4COC4)c(P(C)(C)=O)c3)cc12 [Example 76, (5-(3-Ethyl-1H-pyrrolo[2,3-b]pyridin-5-yl)-2-(oxetan-3-ylamino)phenyl)dimethylphosphine oxide]	500 to 1000	> 1000	4			
CCc1c[nH]c2ncc(-c3cc(NC(C)=O)cc(P(C)(C)=O)c3)cc12 [Example 68, N-(3-(dimethylphosphoryl)-5-(3-ethyl-1H-pyrrolo[2,3-b]pyridin-5-yl)phenyl)acetamide]	500 to 1000	> 1000	2			
CCc1c(Cl)[nH]c2ncc(-c3ccc(N)c(P(C)(C)=O)c3)cc12 [Example 69, (2-Amino-5-(2-chloro-3-ethyl-1H-pyrrolo[2,3-b]pyridin-5-yl)phenyl)dimethylphosphine oxide]	≤ 100			≤ 100	500 to 1000	52
CCc1c[nH]c2ncc(-c3ccc(CN(C)C)c(P(C)(C)=O)c3)cc12 [Example 65, (2-((Dimethylamino)methyl)-5-(3-ethyl-1H-pyrrolo[2,3-b]pyridin-5-yl)phenyl)dimethylphosphine oxide]	500 to 1000	> 1000	>10			
CCc1c[nH]c2ncc(-c3ccc(NC(C)=O)c(P(C)(C)=O)c3)cc12 [Example 58, N-(2-(dimethylphosphoryl)-4-(3-ethyl-1H-pyrrolo[2,3-b]pyridin-5-yl)phenyl)acetamide]	≤ 100	100 to 500	4			
COc1cc2c(cc1Nc1ncc(Cl)c(-n3cc(C4(C(=O)O)CC4)c4ccccc43)n1)CN(C)CC2 [Example 143]	≤ 100	> 1000	433			
CC(C)c1c[nH]c2ncc(-c3ccc(N)c(P(C)(C)=O)c3)cc12 [Example 77, (2-Amino-5-(3-isopropyl-1H-pyrrolo[2,3-b]pyridin-5-yl)phenyl)dimethylphosphine oxide]	≤ 100	> 1000	76			
CCc1c[nH]c2ncc(-c3ccc(-c4ncco4)c(P(C)(C)=O)c3)cc12 [Example 63, (5-(3-Ethyl-1H-pyrrolo[2,3-b]pyridin-5-yl)-2-(oxazol-2-yl)phenyl)dimethylphosphine oxide]	100 to 500	> 1000	19			

The next lines start with the values.

IC50 (HPK1; [1]) [nM]	IC50 (JAK3; [2]) [nM]	JAKs/HPK1 IC50 Ratio, B* (JAK3; [3])	IC50 (HPK1; N*: testing performed in a second testing facility, read-out: HPK1 IC50 (nM) Relative, N*) [nM]	IC50 (JAK3; N*: testing performed in a second testing facility, read-out: JAK3 IC50 (nM) Relative, N*) [nM]	JAKs/HPK1 IC50 Ratio, N* (JAK3; ratio of JAK3 IC50 to HPK1 IC50, second testing facility)	SMILES
≤ 100	≤ 100	11				COc1ccc2c(c1)C(C(=O)O)CN2c1nc(Nc2cc3c(cc2OC)CCN(C)C3)ncc1Cl (stereo not drawn) [Example 106, 1-(5-Chloro-2-((6-methoxy-2-methyl-1,2,3,4-tetrahydroisoquinolin-7-yl)amino)pyrimidin-4-yl)-5-methoxyindoline-3-carboxylic acid]
≤ 100	100 to 500	20				CCc1c[nH]c2ncc(-c3ccc(O)c(P(C)(C)=O)c3)cc12 [Example 55, (5-(3-Ethyl-1H-pyrrolo[2,3-b]pyridin-5-yl)-2-hydroxyphenyl)dimethylphosphine oxide]
≤ 100	> 1000	>236				CC(C)Oc1cc2c(cc1Nc1ncc(Cl)c(N3CC(C(=O)O)c4ccccc43)n1)CN(C)CC2 (stereo not drawn) [Example 111, 1-(5-Chloro-2-((6-isopropoxy-2-methyl-1,2,3,4-tetrahydroisoquinolin-7-yl)amino)pyrimidin-4-yl)indoline-3-carboxylic acid]
≤ 100	100 to 500	30				COc1cc2c(cc1Nc1ncc3ccn(-c4cccnc4C)c3n1)CN(C)CC2 [Example 41, 6-Methoxy-2-methyl-N-(7-(2-methylpyridin-3-yl)-7H-pyrrolo[2,3-d]pyrimidin-2-yl)-1,2,3,4-tetrahydroisoquinolin-7-amine]
≤ 100	> 1000	121				COc1cc2c(cc1Nc1ncc3ccc(=O)n(-c4ccccc4)c3n1)CN(C)CC2 [Example 171, 2-((6-Methoxy-2-methyl-1,2,3,4-tetrahydroisoquinolin-7-yl)amino)-8-phenylpyrido[2,3-d]pyrimidin-7(8H)-one]
≤ 100	> 1000	25				CCc1c[nH]c2ncc(-c3ccc(F)c(P(C)(C)=O)c3N)cc12 [Example 60, (2-Amino-3-(3-ethyl-1H-pyrrolo[2,3-b]pyridin-5-yl)-6-fluorophenyl)dimethylphosphine oxide]
≤ 100	> 1000	150				COc1cc2c(cc1Nc1ncc(Cl)c(N3CC(C(=O)O)c4ccccc43)n1)CN(C)CC2 (single isomer, unassigned) [Example 95]
